From patent publication US8003615B2, “Stable vitamin B6 derivative” (Daiichi Fine Chemical Co., Ltd., priority 2003, dated 2011)

Assays:
[1] = Thermal stability of aqueous solution kept at 50° C., HPLC; assay type: physicochemical; details: 0.5% (w/v) aqueous solution; for coloring of the aqueous solution after the warming: 50° C. for 90 days; for decomposed by warming: pH about 6.3-7.2, 50° C. for 90 days
Protocol: A 0.5% (w/v) aqueous solution of pyridoxine 3-β-D-glucoside (pH 6.7) in a volume of 0.3 ml was sealed in a 1-ml volume glass ampoule, and kept at 50° C. under light shielding. The sample was warmed for 90 days, and analyzed during the warming by HPLC (analysis conditions were the same as those applied in Test Example 1) to measure a pyridoxine 3-β-D-glucoside content. A solution of pyridoxine hydrochloride of the same concentration (adjusted to pH 6.7) was treated in the same manner, and the results were compared.
Aqueous solutions (0.5% (w/v)) of pyridoxine 3-β-D-glucoside hydrochloride, pyridoxal 3-β-D-glucoside, pyridoxamine 3-β-D-glucoside, pyridoxine 3-β-D-galactoside, pyridoxine hydrochloride, pyridoxal hydrochloride, and pyridoxamine hydrochloride (adjusted to pH 6.3 to 7.2 with HCl or NaOH) were each sealed in a volume of 0.3 ml in a 1-ml volume glass ampoule, […] in the same manner as in Test Example 2.
0.5% (w/v) Aqueous solutions of pyridoxine 3,4′-cyclic sodium phosphate and pyridoxine hydrochloride (adjusted to pH 6.5 to 6.8) were each sealed in a volume of 0.3 ml in a 1-ml volume glass ampoule, and warming at 50° C. and HPLC analysis were performed in the same manner as in Test Example 2.

[2] = assay type: physicochemical; details: 0.5% (w/v) aqueous solution; for coloring of the aqueous solution after the light irradiation: D65 fluorescent lamp 13,000 Lx; for decomposition after light irradiation: pH about 6.3-7.2, D65 fluorescent lamp 13,000 Lx, room temperature, 14 days
Protocol: A 0.5% (w/v) aqueous solution of pyridoxine 3-β-D-glucoside (pH 6.7) in a volume of 0.3 ml was enclosed in a 1-ml volume glass ampoule, and irradiated with a D65 fluorescent lamp (Toshiba) for 14 days. The irradiation was performed at room temperature with an illumination of 13,000 Lx. Samples before the irradiation and after 1 day, 7 days and 14 days of the irradiation were analyzed by HPLC to measure a pyridoxine 3-β-D-glucoside content. A solution of pyridoxine hydrochloride of the same concentration (adjusted to pH 6.7) was treated in the same manner, and the results were compared. The HPLC measurement conditions were as follows.
Column: Inertsil ODS-3 ([…], ([…], φ4.6×150 mm, GL Science Inc.)
Eluent acetonitrile:0.1% (v/v) trifluoroacetic acid, 5 mM sodium 1-hexanesulfonate=1:9
Column temperature: 40° C.
Aqueous solutions (0.5% (w/v)) of pyridoxine 3-β-D-glucoside hydrochloride, pyridoxal 3-β-D-glucoside, pyridoxamine 3-β-D-glucoside, pyridoxine 3-β-D-galactoside, and pyridoxine hydrochloride (adjusted to pH 6.3 to 7.2 with HCl or NaOH) were each sealed in a volume of 0.3 ml in a 1-ml volume glass ampoule, and light irradiation and HPLC quantification were performed in the same manner as in Test Example 1. […] Test Example 4 (thermal stability of pyridoxine 3-β-D-glucoside hydrochloride and various 3-glycosides) […]

[3] = tested on: hairless mouse; details: 2% sample applied on the back 90 minutes before ultraviolet irradiation, 2 hours, 5 times/week, ten weeks; positive control DETAPAC
Protocol: It was evaluated whether or not the sample prepared by the following preparing method suppressed wrinkle formation caused by ultraviolet irradiation.
DETAPAC was used as a positive control.
Mice (10-week old) in each group consisting of 8 mice were applied with each of the aforementioned samples on the back 90 minutes before ultraviolet irradiation, and irradiated with ultraviolet rays of a fixed quantity (Toshiba FL20 S-BLB lamp) for 2 hours (5 times/week) over ten weeks to examine suppressing effect on wrinkle formation.
Wrinkle formation after the ultraviolet irradiation of ten weeks was graded in accordance with the “skin photoaging grades” mentioned below. The results were indicated as averages of the scores for eight mice.

[4] = tested on: mouse B16 melanoma cells; assay: Test for melanin production suppression and cell survival rate in cultured cells; assay type: cell-based; design: key to Evaluation (whitening degree of B16 melanoma cells): +: whitening effect comparable to that of the control; ±: whitening effect a little weaker than that of the control; ×: no effect; −: test was not performed; details: for Evaluation (whitening degree of B16 melanoma cells): control 100 μg/ml kojic acid; for Cell growth rate: relative to control taken as 100%; for suppressing effect on melanin production: overall conclusion from the tables
Protocol: Cultured mouse B16 melanoma cells were used. An appropriate amount of MEM medium containing 10% FBS was added to wells of two 6-well plates, and the B16 melanoma cells were inoculated, and incubated at 37° C. with 5 volume % CO2. On the next day, a sample-containing solution was added so that the medium contained the vitamin B6 derivative (pyridoxine 3-β-D-glucoside or pyridoxine 3-β-D-glucoside hydrochloride) at a final solid concentrations shown in FIG. 20, and then mixed. On the 5th day of the culture, the medium was exchanged, and the sample-containing solution was again added. On the next day, the medium was removed, and for one plate, the cells were washed with phosphate buffer (pH 7.0), and then collected. Then, whitening degree of the cultured B16 melanoma cells was evaluated according to the criteria mentioned below by using 100 μg/ml kojic acid as a control. […] The cell growth rate is indicated with a relative ratio based on that of the control, which is taken as 100%.

[5] = tested on: mouse B16 melanoma cells; assay: Melanin production suppression by combination with whitening agent (arbutin); assay type: cell-based; details: substance and arbutin each 100 μM, 5 days culture, intracellular melanin relative to solvent control
Protocol: Cultured mouse B16 melanoma cells were used. A vitamin B6 derivative (pyridoxine 3-β-D-glucoside) and arbutin (Wako Pure Chemical Industries) dissolved in purified water at given concentrations were each added to the medium at a concentration of 100 μM. With exchanges of the medium during the culture, the cells were cultured for 5 days, and then collected. The cell number was counted, and then intracellular melanin was quantified. As a control added with a solvent, the medium added with purified water was used. Based on the amount of the melanin observed for the control added with the solvent, which was taken as 1, the relative amount of intracellular melanin observed for each sample concentration was considered a melanin production ratio.

[6] = 50° C., in pharmaceutical preparations; cited from earlier work
[7] = final concentration 333.3 μg/mL

Row | Compound | coloring of the aqueous solution after the warming [1] | decomposed by warming [1] | coloring of the aqueous solution after the light irradiation [2] | decomposition after light irradiation [2] | other results
1 | Cc1ncc(CO)c(C=O)c1O[C@@H]1O[C@H](CO)[C@@H](O)[C@H](O)[C@H]1O [pyridoxal 3-β-D-glucoside, Pyridoxal 3-β-D-glucoside] | no coloring was observed | almost no decomposition | no coloring was observed |  | 
2 | Cc1ncc(CO)c(C=O)c1O.Cl [pyridoxal hydrochloride, reference compound] | colored in yellow | ~55% |  |  | 
3 | Cc1ncc(CO)c(CN)c1O[C@@H]1O[C@H](CO)[C@@H](O)[C@H](O)[C@H]1O [pyridoxamine 3-β-D-glucoside, Pyridoxamine 3-β-D-glucoside] | no coloring was observed | almost no decomposition | no coloring was observed | not observed | 
4 | Cc1ncc(CO)c(CN)c1O.Cl [pyridoxamine hydrochloride, reference compound] | colored in yellow | ~85% |  |  | 
5 | Cc1ncc(CO)c2c1OP(=O)([O-])OC2.[Na+] [pyridoxine 3,4′-cyclic sodium phosphate, Pyridoxine 3,4′-cyclic sodium phosphate] | no coloring was observed | almost no decomposition |  | no decomposition was observed | 
6 | Cc1ncc(CO)c(CO)c1O[C@@H]1O[C@H](CO)[C@H](O)[C@H](O)[C@H]1O [pyridoxine 3-β-D-galactoside, Pyridoxine 3-β-D-galactoside] | no coloring was observed | almost no decomposition | no coloring was observed | not observed | 
7 | Cc1ncc(CO)c(CO)c1O[C@@H]1O[C@H](CO)[C@@H](O)[C@H](O)[C@H]1O.Cl [pyridoxine 3-β-D-glucoside hydrochloride] | no coloring was observed | almost no decomposition | no coloring was observed | not observed | suppressing effect on wrinkle formation (skin photoaging grades) [3]: comparable to or higher than that of DETAPAC; Evaluation (whitening degree of B16 melanoma cells) ([4]; final concentration 100 μg/mL): ×; Cell growth rate ([4]; final concentration 100 μg/mL): 100%; Evaluation (whitening degree of B16 melanoma cells) [4, 7]: ×; Cell growth rate [4, 7]: 100%; Evaluation (whitening degree of B16 melanoma cells) ([4]; final concentration 1000 μg/mL): ×; Cell growth rate ([4]; final concentration 1000 μg/mL): 97%; Evaluation (whitening degree of B16 melanoma cells) ([4]; final concentration 3333 μg/mL): +; Cell growth rate ([4]; final concentration 3333 μg/mL): 87%; suppressing effect on melanin production [4]: superior suppressing effect on melanin production
8 | Cc1ncc(CO)c(CO)c1O[C@@H]1O[C@H](CO)[C@@H](O)[C@H](O)[C@H]1O [pyridoxine 3-β-D-glucoside, Pyridoxine 3-β-D-glucoside] | no coloring was observed | almost no decomposition | no coloring was observed | not observed | Evaluation (whitening degree of B16 melanoma cells) ([4]; final concentration 10 μg/mL): ×; Cell growth rate ([4]; final concentration 10 μg/mL): 101%; Evaluation (whitening degree of B16 melanoma cells) ([4]; final concentration 30 μg/mL): ×; Cell growth rate ([4]; final concentration 30 μg/mL): 101%; Evaluation (whitening degree of B16 melanoma cells) ([4]; final concentration 100 μg/mL): ×; Cell growth rate ([4]; final concentration 100 μg/mL): 101%; Evaluation (whitening degree of B16 melanoma cells) ([4]; final concentration 300 μg/mL): ±; Cell growth rate ([4]; final concentration 300 μg/mL): 101%; Evaluation (whitening degree of B16 melanoma cells) ([4]; final concentration 1000 μg/mL): +; Cell growth rate ([4]; final concentration 1000 μg/mL): 102%; suppressing effect on melanin production [4]: superior suppressing effect on melanin production; suppressing effect on melanin production in combination with arbutin [5]: superior suppressing effect on melanin production
9 | Cc1ncc(CO)c(CO[C@H]2O[C@H](CO)[C@@H](O)[C@H](O)[C@H]2O)c1O [pyridoxine 4′-α-D-glucoside] |  |  |  |  | long term stability compared with pyridoxine hydrochloride [6]: superior long term stability
10 | N-(4-pyridoxylmethylene)-L-serine 3-β-D-glucoside |  |  |  | no decomposition was observed | 
